In PMC12165799, “Antimicrobial peptide developed with machine learning sequence optimization targets drug resistant Staphylococcus aureus in mice” (The Journal of Clinical Investigation, 2025):
Converted amounts (≈) assume the structure as drawn. Like-named read-outs stand apart in the source and are kept apart here.

Columns and labels:
[1] = tested on: S. aureus MW2; assay: Minimal inhibitory concentration (MIC) assay, broth microdilution; assay type: cell-based, Staphylococcus aureus; conditions: Staphylococcus aureus
Protocol: 300 Synthesis of peptides
302 Piscataway, NJ, USA).
305 Minimal inhibitory concentration (MIC) assay
We made serial dilutions of 10×
We determined the MIC using OD600
Accordingly, we added 150 mM NaCl,
319 established protocol (5).

[2] = tested on: MRSA (S. aureus MW2) biofilm; assay: Biofilm viability assay on solid support (MW2); assay type: cell-based, Staphylococcus aureus; conditions: S. aureus MW2, 10 μg/ml, 24 h in PBS
[3] = tested on: VRSA (S. aureus VRS1) biofilm; assay: Biofilm viability assay on solid support (VRS1); assay type: cell-based, Staphylococcus aureus; conditions: S. aureus VRS1, 10 μg/ml, 24 h in PBS
[4] = tested on: S. aureus MW2 24 h established biofilm; conditions: 24 h treatment
Protocol: 346 plated onto TSA plates, and incubated plates at 37°C overnight. The next day, we counted the
347 viable bacterial colonies.
We used TSB medium containing
356 bacteria with water as the positive control, while TSB media with sterile water served as the
357 negative control. After incubation, we carefully removed the TSB medium and washed the wells
358 with PBS (Gibco, MD, USA) to remove loosely attached planktonic cells. We quantified the
359 biomass by staining the biofilms with crystal violet following an established protocol and
360 quantitated the concentration of peptide that inhibits 50% of biofilm formation (MBIC50)(8). We
361 measured the live cell count of the biofilms using XTT dye [2,3-bis(2-methyloxy-4-nitro-5-
362 sulfophenyl)-2H-tertazolium-5-carboxanilide] (ATCC, VA, USA). We calculated the percentage
363 of biofilm growth by normalizing to biofilm growth in wells containing bacteria without peptide
366 Disruption of S. aureus MW2 established biofilms
367 We evaluated the ability of the citropin 1.1-derived peptides to disrupt established biofilms
368 following an established protocol with modifications (5). We prepared exponential cultures of S.
369 aureus MW2 (adjusted to 1 × 10^6 CFU/ml) in TSB medium (supplemented with 0.2% glucose)
370 from overnight grown cultures. We added 100 µl of bacterial culture to flat-bottomed 96-well
371 polystyrene microtiter plates (Cat no. 3595, Corning, NY, USA). We then incubated the plates at
372 37°C for 24 hours in static conditions to allow biofilm formation. After incubation, we carefully
373 pipetted out the TSB medium and washed the wells with PBS (Gibco, MD, USA) to remove
374 loosely attached planktonic cells. We treated the established biofilms in each well with 10 µl of
375 serially diluted 10× peptide solution, followed by the addition of 90 μl TSB medium
376 (supplemented with 0.2% glucose). We incubated the plates for another 24 h at 37°C before
377 processing biomass and live-cell contents. We calculated the concentration of peptide that disrupts
378 50% of established biofilms (MBEC50).

[5] = tested on: S. aureus MW2 membrane; assay: Propidium iodide-based membrane permeability; assay type: cell-based, Staphylococcus aureus; conditions: S. aureus MW2, 60 minutes
Protocol: 484 min at room temperature in the dark based on a previously established protocol (8). We added 90
485 µl of the dye/bacteria mixture to 10 μl of serially diluted 10× peptide concentration in black, 96-
486 well plates (Cat. no. 3904, Corning, NY, USA) and incubated the plates for 1 hour at room
487 temperature. We measured the fluorescence with excitation and emission wavelengths of 485 nm
488 and 525 nm, respectively in endpoint assay mode using a SpectraMax i3x (Molecular Devices,
489 CA, USA) fluorescence reader.
490 Propidium iodide-based membrane permeability
491 We used a propidium iodide (Thermo Fisher Scientific, MA, USA) fluorescence-based
492 bacterial permeation assay to establish membrane-oriented interactions with the designed peptides
493 based on a previously established protocol (8). We prepared exponential phase S. aureus MW2
494 bacteria and diluted to OD600 = 0.4 in PBS. We added PI dye (final concentration = 2 µM) to the
495 bacteria in 1:10 serial dilutions in black, 96-well plates (Cat. no. 3904, Corning, NY, USA) and
496 incubated the plates for 1 hour at room temperature. We then measured the fluorescence with an
497 excitation wavelength of 584 nm and an emission wavelength of 620 nm in endpoint assay mode
498 using a SpectraMax i3x (Molecular Devices, CA, USA) fluorescence reader.
501 To determine the ATP leakage potential of the peptides, we employed a luciferase-based
502 assay(18). In brief, we washed exponential phase of S. aureus MW2 bacteria three times with PBS
503 (pH 7.4) and adjusted the washed cells to OD600 = 0.4 in PBS. Following treatment of the bacteria
504 with 32 µg/ml of CIT-8 peptide at 37°C for 30 min, we centrifuged the cells at 14,000× g for 5
505 min. We transferred 50 µl of each supernatant fraction to black, clear-bottom, 96-well plates

CN[C@H](CC(C)C)C(=O)N[C@H]1C(=O)N[C@@H](CC(N)=O)C(=O)N[C@H]2C(=O)N[C@H]3C(=O)N[C@H](C(=O)N[C@H](C(=O)O)c4cc(O)cc(O)c4-c4cc3ccc4O)[C@H](O)c3ccc(c(Cl)c3)Oc3cc2cc(c3O[C@@H]2O[C@H](CO)[C@@H](O)[C@H](O)[C@H]2O[C@H]2C[C@](C)(N)[C@H](O)[C@H](C)O2)Oc2ccc(cc2Cl)[C@H]1O [Vancomycin, reference compound]
MIC ([1]; MW2, 18 h, read-out: MIC SA): ≤ 0.125 µg/mL | MIC ([1]; read-out: MIC + MgSO4 (1 mM), S. aureus MW2, TSB + 1 mM MgSO4): ≤ 1 µg/mL | MIC ([1]; read-out: MIC + human serum (10%), S. aureus MW2, TSB + 10% human serum): ≤ 1 µg/mL | MIC ([1]; S. aureus MW2, TSB + 8 μM ZnSO4, read-out: MIC + ZnSO4 (8 μM)): ≤ 1 µg/mL | MIC ([1]; S. aureus MW2, TSB + 2.5 mM CaCl2, read-out: MIC + CaCl2 (2.5 mM)): ≤ 1 µg/mL | MIC ([1]; S. aureus MW2, TSB + 150 mM NaCl, read-out: MIC + NaCl (150 mM)): ≤ 1 µg/mL | MIC ([1]; S. aureus MW2, TSB + 5% human serum, read-out: MIC + human serum (5%)): ≤ 1 µg/mL | MIC ([1]; S. aureus MW2, TSB, read-out: MIC, Medium only): 1 µg/mL (≈ 0.69 µM) | Bacterial load of 24 hour established biofilm on solid membrane ([2]; replicate 1): 160000000 | Bacterial load of 24 hour established biofilm on solid membrane ([2]; replicate 2): 18000000 | Bacterial load of 24 hour established biofilm on solid membrane ([2]; replicate 3): 28000000 | Bacterial load of 24 hour established biofilm on solid membrane ([2]; replicate 4): 40000000 | Bacterial load of 24 hour established biofilm on solid membrane ([2]; replicate 5): 20000000 | Bacterial load of 24 hour established biofilm on solid membrane ([2]; replicate 6): 60000000 | Bacterial load of 24 hour established biofilm on solid membrane ([3]; replicate 1): 40000000 | Bacterial load of 24 hour established biofilm on solid membrane ([3]; replicate 2): 40000000 | Bacterial load of 24 hour established biofilm on solid membrane ([3]; replicate 3): 60000000 | Bacterial load of 24 hour established biofilm on solid membrane ([3]; replicate 4): 60000000 | Bacterial load of 24 hour established biofilm on solid membrane ([3]; replicate 5): 20000000 | Bacterial load of 24 hour established biofilm on solid membrane ([3]; replicate 6): 20000000 | Established biofilm, biomass (crystal violet), percentage of untreated ([4]; 4 μg/ml, replicate 1): 149.693 | Established biofilm, live-cell viability (XTT), percentage of untreated ([4]; 4 μg/ml, replicate 1): 100.129 | Established biofilm, biomass (crystal violet), percentage of untreated ([4]; 4 μg/ml, replicate 2): 84.8543 | Established biofilm, live-cell viability (XTT), percentage of untreated ([4]; 4 μg/ml, replicate 2): 106.559 | Established biofilm, biomass (crystal violet), percentage of untreated ([4]; 4 μg/ml, replicate 3): 49.5143 | Established biofilm, live-cell viability (XTT), percentage of untreated ([4]; 4 μg/ml, replicate 3): 106.192 | Established biofilm, biomass (crystal violet), percentage of untreated ([4]; 8 μg/ml, replicate 1): 88.3691 | Established biofilm, live-cell viability (XTT), percentage of untreated ([4]; 8 μg/ml, replicate 1): 102.865 | Established biofilm, live-cell viability (XTT), percentage of untreated ([4]; 8 μg/ml, replicate 2): 105.547 | Established biofilm, biomass (crystal violet), percentage of untreated ([4]; 8 μg/ml, replicate 3): 88.3308 | Established biofilm, live-cell viability (XTT), percentage of untreated ([4]; 8 μg/ml, replicate 3): 106.722 | Established biofilm, biomass (crystal violet), percentage of untreated ([4]; 16 μg/ml, replicate 1): 138.471 | Established biofilm, live-cell viability (XTT), percentage of untreated ([4]; 16 μg/ml, replicate 1): 64.3129 | Established biofilm, biomass (crystal violet), percentage of untreated ([4]; 16 μg/ml, replicate 2): 273.773 | Established biofilm, live-cell viability (XTT), percentage of untreated ([4]; 16 μg/ml, replicate 2): 78.7072 | Established biofilm, biomass (crystal violet), percentage of untreated ([4]; 16 μg/ml, replicate 3): 273.774 | Established biofilm, live-cell viability (XTT), percentage of untreated ([4]; 16 μg/ml, replicate 3): 47.5625 | Established biofilm, biomass (crystal violet), percentage of untreated ([4]; 32 μg/ml, replicate 1): 98.1851 | Established biofilm, live-cell viability (XTT), percentage of untreated ([4]; 32 μg/ml, replicate 1): 0.7061 | Established biofilm, biomass (crystal violet), percentage of untreated ([4]; 32 μg/ml, replicate 2): 78.1697 | Established biofilm, live-cell viability (XTT), percentage of untreated ([4]; 32 μg/ml, replicate 2): 1.691 | Established biofilm, biomass (crystal violet), percentage of untreated ([4]; 32 μg/ml, replicate 3): 90.9509 | Established biofilm, live-cell viability (XTT), percentage of untreated ([4]; 32 μg/ml, replicate 3): 6.084 | Propidium iodide fluorescence (membrane permeation) [5]: did not induce fluorescence
